From patent publication US20210100777A1, “HEAT SHOCK PROTEIN (HSP) INHIBITION AND MONITORING EFFECTIVENESS THEREOF” (H. LEE MOFFITT CANCER CENTER AND RESEARCH INSTITUTE, INC., priority 2013, published 2021)

Experiments:
[1] = test system: chymotrypsin like proteasome activity in M229R and 1205LuR cells; test: Proteasome-Glo Chymotrypsin-Like Cell Based Assay; conditions: 300 nM, 48 hours
Experimental: Measurement of proteasome activity. M229R and 1205LuR cells were harvested and plated at 7,500 cells per well in a white-walled 96 well plate. […] Proteasome activity was assessed using the Proteasome-Glo Chymotrypsin-Like Cell Based Assay (Promega; Madison, Wis.) and was measured in relative luminescence units (RLU).

[2] = test system: matched pairs of vemurafenib naïve and resistant melanoma cell lines and melanoma cell lines with intrinsic resistance; test: Growth inhibition, MTT assay; type: cell-based
Experimental: Growth inhibition. Cells were plated at a density of 2.5×10^4 cells per ml and left to grow overnight before being treated with increasing concentrations of vemurafenib or XL888. After 72 hours, the levels of growth inhibition were examined using the MTT assay (Smalley et al., Br. J. Cancer 96:445-9 (2007)). […] Vemurafenib and XL888 were dissolved in 100% DMSO and stored at −20° C. as a 10 mM solution.
Statistical analysis of GI50 values. Triplicate experiments were performed for each cell line under each drug treatment. To estimate the IC50 values for each cell line for each treatment, a 4-parameter Hill equation was used to model the nonlinear sigmoid relationship between the drug concentration and % cell survival. Briefly,
where x is the drug concentration, y is the % survival, ε is the error term. The four parameters in the model to estimate are: 1) the control-level effect (E); 2) the background-level effect (B); 3) the median effect concentration (GI50); and 4) the strength of the inhibition (m). The constraint of non-negative minimum background effect (B) is imposed so the model is biologically meaningful. Levenberg-Marquardt algorithm for nonlinear least squares was used to fit the model and estimate all four parameters for each cell line under each treatment. Estimated concentration at 50% cell survival, i.e., IC50, is estimated using the plugged-in parameters after model fitting. Note that when the control and background effects are 100% and 0%, respectively, the estimated GI50 and IC50 values would be identical. To compare the estimated IC50 values between the resistance and naïve paired of cell lines, after log transformation, a paired t-test was performed for each drug.

[3] = test system: BIM, Mcl-1 and BMF mRNA in vemurafenib-resistant melanoma cell lines; test: Quantitative real-time PCR; conditions: 300 nM, 48 hours
intratumoral HSP70 = test: LC-MRM analysis of xenograft samples; type: in vivo, BALB SCID mice; conditions: 15-days of treatment, 100 mg/kg
Experimental: Liquid chromatography, multiple reaction monitoring mass (LC-MRM) spectrometry (LC MRM) analysis. LC-MRM was performed as described in (Remily-Wood et al., Proteomics Clin. App. 5:383-96 (2011)). Protein expression was determined using the ratio of peak area of the native peptide to corresponding internal standard; normalization of tissue results was performed using GAPDH to control for cellularity (Table 9). Data were then normalized to the pretreatment (cell lines) or vehicle controls (tissue) and plotted to show the changes in expression after drug treatment.
Xenograft experiments. BALB SCID mice (The Jackson Laboratory, Bar Harbor, Me.) were subcutaneously injected with 2.5×10^6 cells per mouse (resuspended in 111 μL L-15 media, 10 mM HEPES, 37.5 μL Matrigel). Tumors were grown to approximately 100 mm^3 prior to dosing. Mice were treated with either 100 mg XL888/kg (n=5) or an equivalent volume of vehicle (10 mM HCl), 3 times per week by oral gavage. Mouse weights and tumor volumes (L×W2/2) were measured 3 times per week. Upon completion of the experiment, vehicle and drug treated tumor biopsies were processed for LC-MRM analysis (as above).

HSPs in 8226/LR5 cells = test: DI-MRM relative quantification of HSPs after 17-DMAG (Example 2); type: cell-based, human; conditions: for CDC37 Fold Change, DI-MRM / HS90A Fold Change, DI-MRM / HS90B Fold Change, DI-MRM / HSP7C Fold Change, DI-MRM / HSP7E Fold Change, DI-MRM / HSP71 Fold Change, DI-MRM / HSP74 Fold Change, DI-MRM / HSPA5 Fold Change, DI-MRM / HSP90α Fold Change, DI-MRM: 8226/LR5, 50 nM, 24 hrs vs. control
Experimental: Synthesis and DI MRM of Standard Peptides. Standard peptides were synthesized and characterized as described previously (Remily-Wood et al., Proteomics Clin. Appl. 5:383-96 (2011)). An automated chip-based nanoelectrospray ion source, (NanoMate100, Advion BioSciences, Ithaca, N.Y.), was mounted on a triple quadrupole mass spectrometer (TSQ Vantage, Thermo, San Jose, Calif.). […] (SEQ ID NO:17) were diluted to 1 μM in 50% aqueous ACN with 0.1% formic acid. For synthetic peptide infusion, the spray voltage was tuned between 1.5 and 1.9 kV for stable ion signal. The gas pressure was set to 0.3 psi. Data were acquired at 20 ms per transition for 2 minutes using m/z 0.002 scan widths. The quadrupole resolution values were modulated from 0.2 to 0.7. […]
Cell Culture, Lysis, and HSP Sample Preparation for Mass Spectrometry. RPMI-8226 and 8226/LR5 cells were maintained as previously described (Bellamy et al., Cancer Res. 51:995-1002 (1991); Remily-Wood et al., Proteomics Clin. Appl. 5:383-96 (2011)). The heat shock protein 90 inhibitor, 17-desmethoxy-17-N,N-dimethylaminoethylamino-geldanamycin (17-DMAG), was dissolved in DMSO (100 μM stock). Based on prior IC50 measurements, the RPMI-8226 cells were treated with 100 nM 17-DMAG for 24 hours, and 8226/LR5 cells were treated with 50 nM 17-DMAG. Cells (n=10^6) were lysed using in aqueous 100 mM ammonium bicarbonate containing 8M urea for protein denaturation. Protein concentrations were measured by Bradford assays; consistent aliquots of total protein (380 ng) were injected for LC-MRM, and the same solutions were used for DI-MRM. Digestion, addition of SIS peptides, and mass spectrometry sample preparation were performed as described for standard proteins.
Calculation of Correction Factors to Account for Interference in DI MRM. […] To evaluate the ability to eliminate these contributions, correction factors were calculated based on LC-MRM data using the following set of equations (Equations 1 and 2): […]

[4] = all LC-MRM transitions, interference-corrected
[5] = noise corrected, only transitions below 40% interference

## CC[C@@H](C)Nc1cc(C(=O)N[C@@H]2C[C@H]3CC[C@@H](C2)N3c2ccc(C(=O)C3CC3)cn2)c(C)cc1C(N)=O [XL888, 5-((R)-sec-butylamino)-N1-((1R,3s,5S)-8-(5-(cyclopropanecarbonyl)pyridin-2-yl)-8-azabicyclo[3.2.1]octan-3-yl)-2-methylterephthalamide]
[1]
  inhibiting chymotrypsin like proteasome activity: less effective than the MEK+PI3K inhibitor combination
[2]; 1 nM-10 μM, 72 hours, MTT
  growth of the cell lines: dose dependent decreases in the growth of all the cell lines
[2]; M229/M229R, M249/M249R, WM164/WM164R, 1205Lu/1205LuR, paired t-test
  difference in growth inhibition / IC50 between naïve and resistant pairs of cell lines: no significant difference in IC50 values
[3]
  BIM mRNA expression: increase in BIM mRNA
  Mcl-1 expression at the mRNA level: blocked Mcl-1 expression at the mRNA level
[3]; M229R and 1205LuR
  BMF mRNA expression: only weakly induced BMF mRNA expression
Intratumoral HSP70
  increase in intratumoral HSP70 expression compared to controls: 8.6 fold

## CO[C@H]1/C=C\C=C(/C)C(=O)NC2=CC(=O)C(NCCN(C)C)=C(C[C@@H](C)C[C@H](OC)[C@H](O)[C@@H](C)/C=C(\C)[C@@H]1OC(N)=O)C2=O [17-DMAG, 17-Dimethylaminoethylamino-17-demethoxygeldanamycin]
HSPs in 8226/LR5 cells; [4]
  CDC37 Fold Change, DI-MRM: 1.24
  HS90A Fold Change, DI-MRM: 1.12
  HS90B Fold Change, DI-MRM: 1.23
  HSP7C Fold Change, DI-MRM: 0.94
  HSP7E Fold Change, DI-MRM: 0.93
  HSP71 Fold Change, DI-MRM: 5.50
  HSP74 Fold Change, DI-MRM: 1.33
  HSPA5 Fold Change, DI-MRM: 0.86
HSPs in 8226/LR5 cells; [5]
  CDC37 Fold Change, DI-MRM: 1.35
  HS90A Fold Change, DI-MRM: 1.14
  HS90B Fold Change, DI-MRM: 1.23
  HSP7C Fold Change, DI-MRM: 1.14
  HSP7E Fold Change, DI-MRM: 1.05
  HSP71 Fold Change, DI-MRM: 5.51
  HSP74 Fold Change, DI-MRM: 1.41
  HSPA5 Fold Change, DI-MRM: 0.90
HSPs in 8226/LR5 cells; y3 (Least Interference)
  HSP90α Fold Change, DI-MRM: 0.76
HSPs in 8226/LR5 cells; y3-y5 (DI-MRM Interference-Corrected)
  HSP90α Fold Change, DI-MRM: 1.14
HSPs in 8226/LR5 cells; y3-y5 (Selected Transitions)
  HSP90α Fold Change, DI-MRM: 1.13
HSPs in 8226/LR5 cells; y3-y6 (DI-MRM Interference-Corrected)
  HSP90α Fold Change, DI-MRM: 1.12
HSPs in 8226/LR5 cells; 8226/LR5, 24 hours after treatment
  changes in expression of HSP90α, DI-MRM: 1.1 fold
